# Data as given in patent US7119073B2, “Peptides and their use as inhibitors of hepatitis C virus ns3 protease” (Istituto Di Ricerche Di Biologia Molecolare P. Angeletti SpA, priority 2001, dated 2006).
# Biological target: T1, full length NS3 protein noncovalently complexed with the full-length NS4A cofactor protein (NS3/NS4A complex) (Hepatitis C virus genotype 1b, UniProt P26663)
# T1 construct: full length NS3 protein spanning residues 1027–1657 of the HCV polyprotein
# Experiment: Full-length NS3-NS4A heterodimer protein assay (Assay A)
# Type: biochemical, hepatitis C virus (HCV)
# Settings: Table 1; full-length NS3/NS4A, NS5A-NS5B peptide substrate; read-out: Assay A
# Method: Full-Length NS3-NS4A Heterodimer Protein Assay (Assay A)
# (Gallinari, P., Paolini, C., Brennan, D., Nardi, C., Steinkühler, C. and De Francesco, R. Modulation of hepatitis C virus NS3 protease and helicase activities through the interaction with NS4A. Biochemistry 38, 5620–5632, 1999)
# In this assay the full length NS3 protein spanning residues 1027–1657 of the HCV polyprotein, noncovalently complexed with the full-length NS4A cofactor protein (residues 1658–1711) was used. Assays were performed in 60 μl of a buffer containing 50 mM Hepes pH 7.5, 0.15 M NaCl, 0.1% (v/v) Triton X-100, 15% (v/v) glycerol, 10 mM DTT, 2 nM NS3/NS4A complex. To this assay mix 10 μM (final concentration) of a peptide substrate corresponding to the NS5AB cleavage site and having the sequence of the NS5A-NS5B peptide, were added. Incubation times at 23° C. were adjusted to obtain <10% conversion. Reactions were stopped by the addition of 40 μl of 1% TFA. Cleavage was determined by HPLC using a Merck-Hitachi chromatograph equipped with an autosampler. 80 μl samples were injected on a Lichrospher C18 reversed phase cartridge column (4×74 mm, 5 μm, Merck) and fragments were separated using a 10–40% acetonitrile gradient at 5%/min using a flow rate of 2.5 ml/min. Peak detection was done by monitoring both the absorbance at 220 nm and tryptophan fluorescence (λex=280 nm, λem=350 nm). Cleavage products were quantitated by integration of chromatograms with respect to appropriate standards. Kinetic parameters were calculated from nonlinear least-squares fit of initial rates as a function of substrate concentration with the help of a Kaleidagraph software, assuming Michaelis-Menten kinetics.
# Ki values of peptide inhibitors were calculated from substrate titration experiments performed in the presence of increasing amounts of inhibitor. Experimental data sets were simultaneously fitted to eg.1 using a multicurve fit macro with the help of a Sigmaplot software: V=(VmaxS)/(Km([…])+S); (eq.1) Alternatively, Ki values were derived from IC50 values, calculated using a four-parameter logistic function, according to eq.2: IC50=(1+S/Km)Ki (eq.2)
# T1 sequence (P26663 1027-1657): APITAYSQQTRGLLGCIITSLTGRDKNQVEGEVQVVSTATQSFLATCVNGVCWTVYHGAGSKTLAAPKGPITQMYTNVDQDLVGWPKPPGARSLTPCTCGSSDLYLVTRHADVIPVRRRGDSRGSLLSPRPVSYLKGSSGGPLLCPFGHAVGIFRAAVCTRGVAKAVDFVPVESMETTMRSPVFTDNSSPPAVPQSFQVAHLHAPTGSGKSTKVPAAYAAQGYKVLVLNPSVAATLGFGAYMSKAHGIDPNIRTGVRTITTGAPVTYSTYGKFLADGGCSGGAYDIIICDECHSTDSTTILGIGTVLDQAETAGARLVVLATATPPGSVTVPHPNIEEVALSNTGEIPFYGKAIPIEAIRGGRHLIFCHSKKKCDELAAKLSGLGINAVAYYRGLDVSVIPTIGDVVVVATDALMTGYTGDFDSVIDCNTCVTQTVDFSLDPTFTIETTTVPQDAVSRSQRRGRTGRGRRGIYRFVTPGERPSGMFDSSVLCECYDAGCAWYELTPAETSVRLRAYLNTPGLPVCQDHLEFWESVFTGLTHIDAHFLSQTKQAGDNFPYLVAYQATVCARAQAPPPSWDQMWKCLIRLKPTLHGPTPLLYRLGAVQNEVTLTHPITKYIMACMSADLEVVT
# T1 sequence (P26663 1658-1711): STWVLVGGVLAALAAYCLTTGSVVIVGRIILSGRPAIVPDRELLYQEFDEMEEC
row,Compound,IC50 [µM]
1,CC(C)COC(=O)NC(C(=O)NC(CC(C)C)C(=O)NC(CC(F)F)C(=O)NCCc1ccccc1CCC(=O)O)C(C)C (stereo not shown) [Compound 125],< 100

# Same assay, conditions: Table 5; full-length NS3/NS4A; read-out: AssayA
row,Compound,IC50 [µM]
1,CC(C)COC(=O)N[C@H](C(=O)N1C[C@H]([S+]([O-])C2CCCCC2)C[C@H]1C(=O)N[C@@H](CC(F)F)C(=O)NCCc1c(F)cc(C(=O)O)cc1F)C(C)C (mixture of isomers) [Compound 552],< 1
2,CCC(Nc1cccc(CCNC(=O)[C@H](CC(F)F)NC(=O)[C@@H]2C[C@@H](c3ccccc3)CN2C(=O)[C@@H](NC(=O)OCC(C)C)C(C)C)c1)C(=O)O (mixture of isomers) [Compound 563],< 10
3,CC(C)COC(=O)N[C@H](C(=O)N1C[C@H](c2ccccc2)C[C@H]1C(=O)N[C@@H](CC(F)F)C(=O)NCCc1cccc(NC(C(=O)O)c2ccccc2)c1)C(C)C (mixture of isomers) [Compound 564],< 10
4,CC(Oc1ccc(F)c(CCNC(=O)[C@H](CC(F)F)NC(=O)[C@@H]2C[C@@H](C3CCCCC3)CN2C(=O)[C@@H](NC(=O)OCC(C)(C)C)C(C)C)c1F)C(=O)O (mixture of isomers) [Compound 567],< 1
5,CCC(Oc1ccc(F)c(CCNC(=O)[C@H](CC(F)F)NC(=O)[C@@H]2C[C@@H](C3CCCCC3)CN2C(=O)[C@@H](NC(=O)OCC(C)C)C(C)C)c1F)C(=O)O (mixture of isomers) [Compound 568],< 1
6,CC(C)COC(=O)N[C@H](C(=O)N1C[C@H](c2ccccc2)C[C@H]1C(=O)N[C@@H](CC(F)F)C(=O)NCCc1cccc(OC(C(=O)O)c2ccccc2)c1)C(C)C (mixture of isomers) [Compound 569],< 10
7,CC(C)COC(=O)N[C@H](C(=O)N1C[C@H](c2ccccc2)C[C@H]1C(=O)N[C@@H](CC(F)F)C(=O)NCCc1cccc(OC(C(=O)O)c2ccc(Br)cc2)c1)C(C)C (mixture of isomers) [Compound 570],< 1
8,CC(C)COC(=O)N[C@H](C(=O)N1C[C@H](c2ccccc2)C[C@H]1C(=O)N[C@@H](CC(F)F)C(=O)NCCc1cc(OC(C(=O)O)c2cccc(Cl)c2)ccc1Cl)C(C)C (mixture of isomers) [Compound 571],< 10
9,CC(C)COC(=O)NC(CCC(=O)O)C(=O)N1CCCC1C(=O)NC(CS)C(=O)NCCc1ccccc1Cl (stereo not shown) [Compound 501],< 100
10,CC(C)COC(=O)NC(C(=O)N1CCCC1C(=O)NC(CC(F)F)C(=O)NCCc1c(F)cc(C(=O)O)cc1F)C(C)C (stereo not shown) [Compound 502],< 10
11,CC(C)COC(=O)N[C@@H](CCC(=O)O)C(=O)N1C[C@H](O)C[C@H]1C(=O)N[C@@H](CS)C(=O)NCCc1ccccc1Cl [Compound 503],< 100
12,COCCOCO[C@@H]1C[C@@H](C(=O)N[C@@H](CC(F)F)C(=O)NCCc2c(F)cc(C(=O)O)cc2F)N(C(=O)[C@@H](NC(=O)OCC(C)C)C(C)C)C1 [Compound 505],< 10
13,CC(C)COC(=O)N[C@@H](CCC(=O)O)C(=O)N1C[C@H](c2ccccc2)CC1C(=O)N[C@@H](CS)C(=O)NCCc1ccccc1Cl (stereo partly shown) [Compound 506],< 10
14,CC(C)COC(=O)N[C@@H](CCC(=O)O)C(=O)N1C[C@H](OCc2ccccc2)C[C@H]1C(=O)N[C@@H](CS)C(=O)NCCc1ccccc1Cl [Compound 507],< 10
15,CC(C)COC(=O)N[C@@H](CCC(=O)O)C(=O)N1C[C@H](c2ccccc2)C[C@H]1C(=O)N[C@@H](CS)C(=O)NCCc1ccccc1Br [Compound 508],< 100
16,CC(C)COC(=O)N[C@H](C(=O)N1C[C@H](OCc2ccc(C(=O)O)cc2)C[C@H]1C(=O)N[C@@H](CC(F)F)C(=O)NCCc1c(Cl)cccc1Cl)C(C)C [Compound 509],< 100
17,CC(C)COC(=O)N[C@@H](CCC(=O)O)C(=O)N1C[C@H](c2ccccc2)C[C@H]1C(=O)N[C@@H](CC(F)F)C(=O)NCCc1ccccc1-c1ccccc1 [Compound 510],< 10
18,CC(C)COC(=O)N[C@@H](CCC(=O)O)C(=O)N1C[C@H](c2ccccc2)C[C@H]1C(=O)N[C@@H](CC(F)F)C(=O)NCCC1=CCCCC1 [Compound 511],< 100

row,Compound,IC50 [µM]
1,CC(C)COC(=O)N[C@@H](CCC(=O)O)C(=O)N1C[C@H](c2ccccc2)C[C@H]1C(=O)N[C@@H](CS)C(=O)NCCc1ccc(C(=O)O)cc1 [Compound 512],< 100
2,O=C(O)CC[C@H](NS(=O)(=O)c1cccc2ccccc12)C(=O)N1C[C@H](c2ccccc2)C[C@H]1C(=O)N[C@@H](CS)C(=O)NCCc1ccc(C(=O)O)cc1 [Compound 513],< 100
3,COC(=O)c1ccc(CCNC(=O)[C@H](CS)NC(=O)[C@@H]2C[C@@H](c3ccccc3)CN2C(=O)[C@H](CCC(=O)O)NS(=O)(=O)c2cccc3ccccc23)cc1 [Compound 514],< 100
4,O=C(O)CC[C@H](NC(=O)[C@@H](O)c1ccccc1)C(=O)N1C[C@H](c2ccccc2)C[C@H]1C(=O)N[C@@H](CS)C(=O)NCCc1ccc(C(=O)O)cc1 [Compound 515],< 100
5,CC(C)COC(=O)N[C@H](C(=O)N1C[C@H](c2ccccc2)C[C@H]1C(=O)N[C@@H](CS)C(=O)NCCc1ccc(C(=O)O)cc1)C(C)C [Compound 516],< 10
6,CC(C)COC(=O)N[C@H](C(=O)N1C[C@H](c2ccccc2)C[C@H]1C(=O)N[C@@H](CC(F)F)C(=O)NCCc1ccc(C(=O)O)cc1)C(C)C [Compound 517],< 10
7,CC(C)COC(=O)N[C@H](C(=O)N1C[C@H](c2ccccc2)C[C@H]1C(=O)N[C@@H](CC(F)F)C(=O)NCCc1ccc(-c2nn[nH]n2)cc1)C(C)C [Compound 518],< 10
8,CC(C)COC(=O)N[C@H](C(=O)N1C[C@H](c2ccccc2)C[C@H]1C(=O)N[C@@H](CC(F)F)C(=O)NCCc1ccc(-c2noc(=O)[nH]2)cc1)C(C)C [Compound 519],< 100
9,CC(C)COC(=O)N[C@@H](CCC(=O)O)C(=O)N1C[C@H](c2ccccc2)C[C@H]1C(=O)N[C@@H](CS)C(=O)NCCc1ccc(C(=O)O)cc1Cl [Compound 520],< 10
10,CC(C)COC(=O)N[C@H](C(=O)N1C[C@H](c2ccccc2)C[C@H]1C(=O)N[C@@H](CS)C(=O)NCCc1ccc(C(=O)O)cc1Cl)C(C)C [Compound 521],< 1
11,CC(C)COC(=O)N[C@H](C(=O)N1C[C@H](c2ccccc2)C[C@H]1C(=O)N[C@@H](CC(F)F)C(=O)NCCc1c(F)cc(C(=O)OC(C)C)cc1F)C(C)C [Compound 524],< 100
12,CC[C@H](NC(=O)[C@@H]1C[C@@H](c2ccccc2)CN1C(=O)[C@@H](NC(=O)OCC(C)C)C(C)C)C(=O)NCCc1c(F)cc(C(=O)O)cc1F [Compound 525],< 100
13,CC(C)COC(=O)N[C@H](C(=O)N1C[C@H](OCc2ccccc2)CC1C(=O)N[C@@H](CC(F)F)C(=O)NCCc1c(F)cc(C(=O)O)cc1F)C(C)C (stereo partly shown) [Compound 526],< 1
14,CC(C)COC(=O)N[C@H](C(=O)N1C[C@@H](OCc2ccccc2)C[C@H]1C(=O)N[C@@H](CC(F)F)C(=O)NCCc1c(F)cc(C(=O)O)cc1F)C(C)C [Compound 527],< 10
15,CC(C)COC(=O)N[C@H](C(=O)N1C[C@H](C2CCCCC2)C[C@H]1C(=O)N[C@@H](CC(F)F)C(=O)NCCc1c(F)cc(C(=O)O)cc1F)C(C)C [Compound 528],< 1
16,CC(C)COC(=O)N[C@H](C(=O)N1C[C@H](C2CCCCC2)C[C@H]1C(=O)N[C@@H](CC(F)(F)F)C(=O)NCCc1c(F)cc(C(=O)O)cc1F)C(C)C [Compound 529],< 10
17,CC(C)COC(=O)N[C@H](C(=O)N1C[C@H](OCc2ccccc2)C[C@H]1C(=O)N[C@@H](CC(F)(F)F)C(=O)NCCc1c(F)cc(C(=O)O)cc1F)C(C)C [Compound 530],< 10

# Same assay, conditions: full-length NS3-NS4A heterodimer protein assay; read-out: Assay A (IC50 class)
row,Compound,IC50 [µM]
1,"CC(C)C[C@H](NC(=O)C1(Cc2ccsc2C(=O)O)Cc2ccccc2N1)C(=O)N[C@@H](CC(F)F)C(=O)NCCc1cc2ccccc2[nH]1 (single isomer, unassigned) [Compound 707a]",< 100
2,"CC(C)C[C@H](NC(=O)C1(Cc2ccsc2C(=O)O)Cc2ccccc2N1)C(=O)N[C@@H](CC(F)F)C(=O)NCCc1cc2ccccc2[nH]1 (single isomer, unassigned) [Compound 707b]",< 100

# Biological target: T2, NS3 protease domain complexed to a modified form of the NS4A peptide (Pep4AK) (Hepatitis C virus genotype 1b, UniProt P26663)
# T2 construct: NS3 protease domain (residues 1027–1206 of the HCV polyprotein)
# Experiment: HCV NS3 protease domain/NS4A cofactor peptide assay (Assay B)
# Type: biochemical
# Settings: NS3 protease domain/NS4A cofactor peptide assay; read-out: Assay B (IC50 class)
# T2 sequence (P26663 1027-1206, other chains not shown): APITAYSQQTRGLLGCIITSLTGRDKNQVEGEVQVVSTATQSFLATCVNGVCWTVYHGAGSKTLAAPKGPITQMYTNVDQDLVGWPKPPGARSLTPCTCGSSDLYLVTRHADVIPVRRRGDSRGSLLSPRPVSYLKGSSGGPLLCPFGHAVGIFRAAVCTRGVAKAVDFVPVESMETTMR
row,Compound,IC50 [µM]
1,CC(C)CC(NC(=O)c1ccccc1-c1ccccc1C(=O)O)C(=O)NC(CC(F)F)C(=O)NCCc1cccc(NCC(=O)O)c1 (stereo not shown) [Compound 720],< 100
2,CCOC(=O)CNc1cccc(CCNC(=O)C(CC(F)F)NC(=O)C(CC(C)C)NC(=O)c2ccccc2-c2ccccc2C(=O)O)c1 (stereo not shown) [Compound 721],< 100
